Values of other authors in US20040082013A1, “Methods for screening for substances which inhibit fp prostanoid receptor interaction with a compound having pgf2alpha activity and methods of treating cancer” (priority 2003, published 2004).

Experiments:
[1] = system: eyelashes and adjacent hair; conditions: some patients receiving latanoprost for glaucoma; treated eye, not untreated eye
[2] = system: skin carcinogenesis; conditions: animal models of skin carcinogenesis

Row | Molecule | hair growth side effect [1] | effect on anti-tumor promoting activity of indomethacin [2] | effect on tumor promoting activity of phorbol esters [2]
1 | CC(C)OC(=O)CCC/C=C\C[C@@H]1[C@@H](CC[C@@H](O)CCc2ccccc2)[C@H](O)C[C@@H]1O [latanoprost] | hypertrichosis of the eyelashes and adjacent hair in the treated eye |  | 
2 | prostaglandin F2α [PGF2α] |  | reversed the anti-tumor promoting activity of indomethacin | increased the tumor promoting activity of phorbol esters
